Reference: ChEMBL document CHEMBL1201862, “PubChem BioAssay data set” (2004)
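Method: 48-hour compound exposure of cells in 96-well plates, five concentrations, linear interpolation of endpoints. At the GI50, growth is halved.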 Activity calls are given as the source filed them. Cut-off read from the data, not from the text of the source: active = GI50 up to about 1.1 µM and inactive = higher.

Assays:
Assay in all cases: inhibition of tumour cell growth, NCI panel, 48 h
HOP-62 = system: HOP-62
NCI-H23 = system: NCI-H23
CAKI-1 = system: CAKI-1
ACHN = system: ACHN
KM-20L2 = system: KM-20L2
EKVX = system: EKVX
DMS-273 = system: DMS-273
OVCAR-5 = system: OVCAR-5
OVCAR-3 = system: OVCAR-3
SNB-78 = system: SNB-78
K562 = system: K562
DLD-1 = system: DLD-1
CCRF-CEM = system: CCRF-CEM
RPMI-8226 = system: RPMI-8226
M19-MEL = system: M19-MEL
DMS-114 = system: DMS-114
A498 = system: A498
DU-145 = system: DU-145
MDA-MB-231 = system: MDA-MB-231
BT-549 = system: BT-549

| SMILES | GI50 (HOP-62) | GI50 (NCI-H23) | GI50 (CAKI-1) | GI50 (ACHN) | GI50 (KM-20L2) | GI50 (EKVX) | GI50 (DMS-273) | GI50 (OVCAR-5) | GI50 (OVCAR-3) | GI50 (SNB-78) | GI50 (K562) | GI50 (DLD-1) | GI50 (CCRF-CEM) | GI50 (RPMI-8226) | GI50 (M19-MEL) | GI50 (DMS-114) | GI50 (A498) | GI50 (DU-145) | GI50 (MDA-MB-231) | GI50 (BT-549) |
| --- | --- | --- | --- | --- | --- | --- | --- | --- | --- | --- | --- | --- | --- | --- | --- | --- | --- | --- | --- | --- |
| CCOC(=O)C1CCn2c(nc3c(=O)n(C)c(=O)n(C)c32)S1 (stereo unspecified) | > 100 µM (inactive) | > 100 µM (inactive) | > 100 µM (inactive) | > 100 µM (inactive) | > 100 µM (inactive) | > 100 µM (inactive) | > 100 µM (inactive) | > 100 µM (inactive) | > 100 µM (inactive) | > 100 µM (inactive) | > 100 µM (inactive) | > 100 µM (inactive) | > 100 µM (inactive) | > 100 µM (inactive) | – | – | – | – | – | – |
| O=C(O)CCCCCCC[C@H]1S[C@H]1CCCCCCO | > 100 µM (inactive) | > 100 µM (inactive) | > 100 µM (inactive) | – | – | > 100 µM (inactive) | – | > 100 µM (inactive) | > 100 µM (inactive) | > 100 µM (inactive) | > 100 µM (inactive) | > 100 µM (inactive) | – | > 100 µM (inactive) | > 100 µM (inactive) | > 100 µM (inactive) | – | – | – | – |
| O=C(CC1(O)C(=O)Nc2c(Cl)cc(Cl)cc21)c1ccco1 (stereo unspecified) | 60.1 µM (inactive) | 56.1 µM (inactive) | 45 µM (inactive) | 83.6 µM (inactive) | 48.3 µM (inactive) | 59.2 µM (inactive) | 38.8 µM (inactive) | > 100 µM (inactive) | 21.2 µM (inactive) | 26.9 µM (inactive) | 30.3 µM (inactive) | 49.3 µM (inactive) | 24.3 µM (inactive) | 23.1 µM (inactive) | – | 22.8 µM (inactive) | – | – | – | – |
| COc1cc(C2c3cc4c(cc3[C@@H](Oc3ccc(F)cc3)C3COC(=O)[C@H]23)OCO4)cc(OC)c1O (stereo partly specified) | 0.267 µM (active) | 0.335 µM (active) | 0.456 µM (active) | – | 0.286 µM (active) | > 43.8 µM (inactive) | 0.337 µM (active) | > 100 µM (inactive) | 1.75 µM (inactive) | – | 0.457 µM (active) | 0.656 µM (active) | 0.368 µM (active) | 0.461 µM (active) | 0.671 µM (active) | – | 0.236 µM (active) | – | – | – |
| COC(=O)N1C=Cc2c(c(C)c3c([nH]c4ccccc43)c2C)C1C (stereo unspecified) | 18.2 µM (inactive) | 17.7 µM (inactive) | 18.1 µM (inactive) | > 10 µM (inactive) | 12.2 µM (inactive) | 14 µM (inactive) | 18 µM (inactive) | 17.2 µM (inactive) | 16.3 µM (inactive) | – | 6.19 µM (inactive) | 14.8 µM (inactive) | 14.8 µM (inactive) | 7.62 µM (inactive) | 20.8 µM (inactive) | 19.4 µM (inactive) | 14.1 µM (inactive) | – | – | – |
| O=C(CC1=NCCN1)c1ccccc1 | > 605 µM (inactive) | > 750 µM (inactive) | > 750 µM (inactive) | – | > 750 µM (inactive) | > 750 µM (inactive) | > 750 µM (inactive) | > 750 µM (inactive) | > 750 µM (inactive) | > 750 µM (inactive) | > 750 µM (inactive) | > 750 µM (inactive) | > 511 µM (inactive) | > 750 µM (inactive) | > 750 µM (inactive) | > 750 µM (inactive) | 62.8 µM (inactive) | – | – | – |
| COC(C(O)c1ccc2c(c1)OCO2)P(=O)(c1ccccc1)c1ccccc1 (stereo unspecified) | > 100 µM (inactive) | 30.8 µM (inactive) | 33.6 µM (inactive) | > 100 µM (inactive) | – | > 100 µM (inactive) | > 100 µM (inactive) | > 100 µM (inactive) | 15.1 µM (inactive) | > 100 µM (inactive) | 60.3 µM (inactive) | 88.7 µM (inactive) | > 100 µM (inactive) | – | > 100 µM (inactive) | 77.3 µM (inactive) | 75.2 µM (inactive) | – | – | – |
| O=C1NC2CCCCCC2C12CCCCC2 (stereo unspecified) | > 100 µM (inactive) | > 100 µM (inactive) | – | > 100 µM (inactive) | > 100 µM (inactive) | > 100 µM (inactive) | – | > 100 µM (inactive) | > 100 µM (inactive) | > 100 µM (inactive) | > 100 µM (inactive) | > 100 µM (inactive) | > 100 µM (inactive) | – | > 100 µM (inactive) | > 100 µM (inactive) | > 100 µM (inactive) | – | – | – |
| CNC(=O)C(C)C1CCC2(C)C=CC(=O)C(C)=C2C1O (stereo unspecified) | > 100 µM (inactive) | > 100 µM (inactive) | 28.5 µM (inactive) | – | > 100 µM (inactive) | > 100 µM (inactive) | > 37.9 µM (inactive) | > 100 µM (inactive) | > 100 µM (inactive) | > 100 µM (inactive) | > 100 µM (inactive) | > 100 µM (inactive) | > 100 µM (inactive) | > 100 µM (inactive) | > 100 µM (inactive) | > 100 µM (inactive) | > 100 µM (inactive) | – | – | – |
| CC1=NN(C(=O)c2ccccc2O)C(=O)/C1=C/c1ccc(O)cc1 | 0.662 µM (active) | 0.568 µM (active) | 0.662 µM (active) | 0.204 µM (active) | 36.5 µM (inactive) | 1.81 µM (inactive) | – | 7.96 µM (inactive) | 0.278 µM (active) | > 100 µM (inactive) | 0.0667 µM (active) | 0.151 µM (active) | 1.47 µM (inactive) | 0.312 µM (active) | – | 0.348 µM (active) | 0.134 µM (active) | 0.492 µM (active) | 58.9 µM (inactive) | 0.279 µM (active) |
| CCCCCCCCCCCC(=O)C1=C(O)CCC(O)C1=O (stereo unspecified) | 15.2 µM (inactive) | 3.48 µM (inactive) | 23 µM (inactive) | 19.4 µM (inactive) | 11.7 µM (inactive) | 5.86 µM (inactive) | 7.29 µM (inactive) | 27.7 µM (inactive) | 10.8 µM (inactive) | 21.9 µM (inactive) | 7.6 µM (inactive) | 18.2 µM (inactive) | 8.18 µM (inactive) | – | 19.5 µM (inactive) | 14.2 µM (inactive) | 16.2 µM (inactive) | – | – | – |
| COC(=O)c1s/c(=N\C(=S)N(C)C)n(-c2ccccc2)c1C(=O)OC | > 100 µM (inactive) | > 100 µM (inactive) | > 100 µM (inactive) | > 100 µM (inactive) | > 100 µM (inactive) | > 100 µM (inactive) | > 100 µM (inactive) | > 100 µM (inactive) | > 100 µM (inactive) | > 100 µM (inactive) | > 100 µM (inactive) | – | – | 73.5 µM (inactive) | > 100 µM (inactive) | 70 µM (inactive) | > 100 µM (inactive) | – | – | – |
| CN(C)CCNC(=O)c1cccc2c1nc(-c1cccnc1)c1ccccc12 | 6.24 µM (inactive) | 4.24 µM (inactive) | 2.45 µM (inactive) | 2.58 µM (inactive) | – | 4.24 µM (inactive) | 3.02 µM (inactive) | 8.83 µM (inactive) | 10.1 µM (inactive) | 8.18 µM (inactive) | 5.98 µM (inactive) | 4.1 µM (inactive) | 4.29 µM (inactive) | – | 5 µM (inactive) | 4.91 µM (inactive) | 1.61 µM (inactive) | – | – | – |
| Cn1c2ccccc2c2ccc3c(c21)C(=O)C(c1ccccc1)=CC3=O | 13.4 µM (inactive) | 22.4 µM (inactive) | 49.9 µM (inactive) | 54.2 µM (inactive) | – | 23.2 µM (inactive) | 21.5 µM (inactive) | > 100 µM (inactive) | 23.7 µM (inactive) | > 100 µM (inactive) | 4.75 µM (inactive) | 17.9 µM (inactive) | 9.62 µM (inactive) | 23.6 µM (inactive) | 24 µM (inactive) | 17.9 µM (inactive) | – | – | – | – |
| CC1C(/C=C/c2ccoc2)ON2CCCC12 (stereo unspecified) | > 10 µM (inactive) | > 100 µM (inactive) | > 100 µM (inactive) | > 100 µM (inactive) | > 100 µM (inactive) | > 100 µM (inactive) | > 100 µM (inactive) | > 100 µM (inactive) | – | > 100 µM (inactive) | – | > 100 µM (inactive) | – | – | > 100 µM (inactive) | – | – | – | – | – |
| Cc1ccc(S(=O)(=O)N/N=C(/c2nc3ccc([N+](=O)[O-])cc3nc2O)C(O)c2ccc(C(O)/C(=N\NS(=O)(=O)c3ccc(C)cc3)c3nc4ccc([N+](=O)[O-])cc4nc3O)cc2)cc1 (stereo unspecified) | 43.1 µM (inactive) | > 100 µM (inactive) | – | 28.6 µM (inactive) | 55.8 µM (inactive) | 81.7 µM (inactive) | 38.4 µM (inactive) | > 100 µM (inactive) | 61.2 µM (inactive) | > 100 µM (inactive) | 13 µM (inactive) | 33.3 µM (inactive) | 13.6 µM (inactive) | 26.1 µM (inactive) | – | 5.98 µM (inactive) | 59 µM (inactive) | – | – | – |
| COC(=O)C#CCC1CCCC1C1SCCS1 (stereo unspecified) | > 100 µM (inactive) | > 100 µM (inactive) | > 100 µM (inactive) | 34 µM (inactive) | 59.6 µM (inactive) | > 100 µM (inactive) | 30.4 µM (inactive) | > 100 µM (inactive) | 88.3 µM (inactive) | 23.6 µM (inactive) | 43.5 µM (inactive) | 73.5 µM (inactive) | 29.2 µM (inactive) | – | > 100 µM (inactive) | > 100 µM (inactive) | > 100 µM (inactive) | – | – | – |
| CC(=O)C1C(=O)C(=O)N(c2ccc(Cl)cc2C)C1=O (stereo unspecified) | > 100 µM (inactive) | > 100 µM (inactive) | – | > 100 µM (inactive) | > 100 µM (inactive) | > 100 µM (inactive) | – | > 100 µM (inactive) | – | > 100 µM (inactive) | > 100 µM (inactive) | > 100 µM (inactive) | > 100 µM (inactive) | – | > 100 µM (inactive) | > 100 µM (inactive) | > 100 µM (inactive) | – | – | – |
